Test results reported in ChEMBL document CHEMBL2074243, “Mitochondria-targeting drug oligomycin blocked P-glycoprotein activity and triggered apoptosis in doxorubicin-resistant HepG2 cells” (Chemotherapy, 2004).

biological target: ATP-dependent translocase ABCB1 (Homo sapiens, UniProt P08183); experiment: TP_TRANSPORTER: drug resistance in R-HepG2 cells; type: functional, cell-based
Sequence (P08183 whole entry): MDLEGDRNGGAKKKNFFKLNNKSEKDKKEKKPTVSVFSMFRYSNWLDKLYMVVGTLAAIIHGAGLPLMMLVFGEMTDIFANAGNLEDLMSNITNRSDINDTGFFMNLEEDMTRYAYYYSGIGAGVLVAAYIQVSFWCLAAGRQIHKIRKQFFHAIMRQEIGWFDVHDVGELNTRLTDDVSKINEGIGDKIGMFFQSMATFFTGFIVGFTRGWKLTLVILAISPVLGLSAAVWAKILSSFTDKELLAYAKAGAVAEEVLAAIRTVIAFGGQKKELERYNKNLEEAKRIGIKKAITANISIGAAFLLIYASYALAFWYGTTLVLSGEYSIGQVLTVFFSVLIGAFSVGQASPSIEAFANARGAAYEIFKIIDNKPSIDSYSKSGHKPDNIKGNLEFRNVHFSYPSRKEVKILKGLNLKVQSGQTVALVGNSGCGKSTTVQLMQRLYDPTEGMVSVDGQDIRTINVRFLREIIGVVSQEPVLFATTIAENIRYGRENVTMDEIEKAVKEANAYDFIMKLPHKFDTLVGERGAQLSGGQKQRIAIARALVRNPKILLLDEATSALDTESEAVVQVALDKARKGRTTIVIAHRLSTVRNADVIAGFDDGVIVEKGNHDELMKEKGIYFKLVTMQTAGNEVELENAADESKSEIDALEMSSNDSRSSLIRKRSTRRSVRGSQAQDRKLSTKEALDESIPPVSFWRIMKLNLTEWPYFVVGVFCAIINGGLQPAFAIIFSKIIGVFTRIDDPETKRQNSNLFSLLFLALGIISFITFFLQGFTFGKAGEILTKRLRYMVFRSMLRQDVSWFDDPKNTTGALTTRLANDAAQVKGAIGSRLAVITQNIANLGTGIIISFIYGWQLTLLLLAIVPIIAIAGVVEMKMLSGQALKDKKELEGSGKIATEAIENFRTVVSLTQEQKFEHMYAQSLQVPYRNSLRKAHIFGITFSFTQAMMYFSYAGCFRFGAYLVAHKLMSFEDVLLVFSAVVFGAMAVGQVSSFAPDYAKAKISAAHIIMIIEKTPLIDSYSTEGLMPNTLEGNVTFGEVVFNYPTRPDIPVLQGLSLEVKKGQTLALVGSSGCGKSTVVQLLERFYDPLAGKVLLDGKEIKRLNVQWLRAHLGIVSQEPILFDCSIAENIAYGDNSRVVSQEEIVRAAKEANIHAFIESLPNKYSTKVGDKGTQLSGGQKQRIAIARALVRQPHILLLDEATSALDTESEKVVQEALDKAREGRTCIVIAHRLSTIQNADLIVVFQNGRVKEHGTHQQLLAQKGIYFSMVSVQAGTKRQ

Activity | Compound
substrate [+] | COc1cccc2c1C(=O)c1c(O)c3c(c(O)c1C2=O)C[C@@](O)(C(=O)CO)C[C@@H]3O[C@H]1C[C@H](N)[C@H](O)[C@H](C)O1 [DOXORUBICIN]
substrate [+] | CC(=O)O[C@H]1C(=O)[C@@]2(C)[C@H]([C@H](OC(=O)c3ccccc3)[C@]3(O)C[C@H](OC(=O)[C@H](O)[C@@H](NC(=O)c4ccccc4)c4ccccc4)C(C)=C1C3(C)C)[C@]1(OC(C)=O)CO[C@@H]1C[C@@H]2O [PACLITAXEL]
substrate [+] | CISPLATIN
